Measured values: the supplement of paper PMC4862054

system: MDA-MB-436; experiment: normalised viability (% of control), CellTiter-Blue; higher = more viable cells (about 100 = DMSO control); details: 1 nM; incubation time: 72 h
Method in brief: (§1)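 Breast cancer cell lines in 20 µl suspension were seeded onto 384-well plates pre-loaded with compound dissolved in 5 µl medium, then incubated 72 h. CellTiter-Blue reagent (2.5 µl) was added for 2 h at 37 °C and fluorescence read at 560/590 nm. Each plate was normalised to vehicle (100) and a positive kill control (0), with Z'-factor quality control. The value is normalised viability at one listed concentration of the series.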

SMILES | normalised viability
CCN(CCCOc1ccc2c(Nc3cc(CC(=O)Nc4cccc(F)c4)[nH]n3)ncnc2c1)CCOP(=O)(O)O [Barasertib] | 126%
CO[C@H]1/C=C\C=C(/C)C(=O)NC2=CC(=O)C(NCCN(C)C)=C(C[C@@H](C)C[C@H](OC)[C@H](O)[C@@H](C)/C=C(\C)[C@@H]1OC(N)=O)C2=O [Alvespimycin] | 90.9%
NC(=O)Nc1cc(-c2cccc(F)c2)sc1C(=O)N[C@H]1CCCNC1 [AZD 7762] | 99%

same assay, conditions: 100 nM; incubation time: 72 h

SMILES | normalised viability
CCN(CCCOc1ccc2c(Nc3cc(CC(=O)Nc4cccc(F)c4)[nH]n3)ncnc2c1)CCOP(=O)(O)O [Barasertib] | 56.5%
CO[C@H]1/C=C\C=C(/C)C(=O)NC2=CC(=O)C(NCCN(C)C)=C(C[C@@H](C)C[C@H](OC)[C@H](O)[C@@H](C)/C=C(\C)[C@@H]1OC(N)=O)C2=O [Alvespimycin] | 28.9%
NC(=O)Nc1cc(-c2cccc(F)c2)sc1C(=O)N[C@H]1CCCNC1 [AZD 7762] | 83.7%

same assay, conditions: 1000 nM; incubation time: 72 h

SMILES | normalised viability
CCN(CCCOc1ccc2c(Nc3cc(CC(=O)Nc4cccc(F)c4)[nH]n3)ncnc2c1)CCOP(=O)(O)O [Barasertib] | 88.1%
CO[C@H]1/C=C\C=C(/C)C(=O)NC2=CC(=O)C(NCCN(C)C)=C(C[C@@H](C)C[C@H](OC)[C@H](O)[C@@H](C)/C=C(\C)[C@@H]1OC(N)=O)C2=O [Alvespimycin] | 20.4%
NC(=O)Nc1cc(-c2cccc(F)c2)sc1C(=O)N[C@H]1CCCNC1 [AZD 7762] | 18.5%

system: MDA-MB-453; experiment: as above; details: 0.3 nM; incubation time: 72 h
Method in brief: as §1

SMILES | normalised viability
CCN(CCCOc1ccc2c(Nc3cc(CC(=O)Nc4cccc(F)c4)[nH]n3)ncnc2c1)CCOP(=O)(O)O [Barasertib] | 104%
CO[C@H]1/C=C\C=C(/C)C(=O)NC2=CC(=O)C(NCCN(C)C)=C(C[C@@H](C)C[C@H](OC)[C@H](O)[C@@H](C)/C=C(\C)[C@@H]1OC(N)=O)C2=O [Alvespimycin] | 115%
NC(=O)Nc1cc(-c2cccc(F)c2)sc1C(=O)N[C@H]1CCCNC1 [AZD 7762] | 113%

same assay, conditions: 3 nM; incubation time: 72 h

SMILES | normalised viability
CCN(CCCOc1ccc2c(Nc3cc(CC(=O)Nc4cccc(F)c4)[nH]n3)ncnc2c1)CCOP(=O)(O)O [Barasertib] | 92.8%
CO[C@H]1/C=C\C=C(/C)C(=O)NC2=CC(=O)C(NCCN(C)C)=C(C[C@@H](C)C[C@H](OC)[C@H](O)[C@@H](C)/C=C(\C)[C@@H]1OC(N)=O)C2=O [Alvespimycin] | 87.4%
NC(=O)Nc1cc(-c2cccc(F)c2)sc1C(=O)N[C@H]1CCCNC1 [AZD 7762] | 93.2%

same assay, conditions: 10 nM; incubation time: 72 h

SMILES | normalised viability
CCN(CCCOc1ccc2c(Nc3cc(CC(=O)Nc4cccc(F)c4)[nH]n3)ncnc2c1)CCOP(=O)(O)O [Barasertib] | 65.6%
CO[C@H]1/C=C\C=C(/C)C(=O)NC2=CC(=O)C(NCCN(C)C)=C(C[C@@H](C)C[C@H](OC)[C@H](O)[C@@H](C)/C=C(\C)[C@@H]1OC(N)=O)C2=O [Alvespimycin] | 61.7%
NC(=O)Nc1cc(-c2cccc(F)c2)sc1C(=O)N[C@H]1CCCNC1 [AZD 7762] | 108%

system: HDQ-P1; experiment: as above; details: 0.3 nM; incubation time: 72 h
Method in brief: as §1

SMILES | normalised viability
CCN(CCCOc1ccc2c(Nc3cc(CC(=O)Nc4cccc(F)c4)[nH]n3)ncnc2c1)CCOP(=O)(O)O [Barasertib] | 103%
CO[C@H]1/C=C\C=C(/C)C(=O)NC2=CC(=O)C(NCCN(C)C)=C(C[C@@H](C)C[C@H](OC)[C@H](O)[C@@H](C)/C=C(\C)[C@@H]1OC(N)=O)C2=O [Alvespimycin] | 99.3%
NC(=O)Nc1cc(-c2cccc(F)c2)sc1C(=O)N[C@H]1CCCNC1 [AZD 7762] | 108%

same assay, conditions: 3 nM; incubation time: 72 h

SMILES | normalised viability
CCN(CCCOc1ccc2c(Nc3cc(CC(=O)Nc4cccc(F)c4)[nH]n3)ncnc2c1)CCOP(=O)(O)O [Barasertib] | 106%
CO[C@H]1/C=C\C=C(/C)C(=O)NC2=CC(=O)C(NCCN(C)C)=C(C[C@@H](C)C[C@H](OC)[C@H](O)[C@@H](C)/C=C(\C)[C@@H]1OC(N)=O)C2=O [Alvespimycin] | 102%
NC(=O)Nc1cc(-c2cccc(F)c2)sc1C(=O)N[C@H]1CCCNC1 [AZD 7762] | 114%

same assay, conditions: 10 nM; incubation time: 72 h

SMILES | normalised viability
CCN(CCCOc1ccc2c(Nc3cc(CC(=O)Nc4cccc(F)c4)[nH]n3)ncnc2c1)CCOP(=O)(O)O [Barasertib] | 109%
CO[C@H]1/C=C\C=C(/C)C(=O)NC2=CC(=O)C(NCCN(C)C)=C(C[C@@H](C)C[C@H](OC)[C@H](O)[C@@H](C)/C=C(\C)[C@@H]1OC(N)=O)C2=O [Alvespimycin] | 112%
NC(=O)Nc1cc(-c2cccc(F)c2)sc1C(=O)N[C@H]1CCCNC1 [AZD 7762] | 115%

system: MFM-223; experiment: as above; details: 1 nM; incubation time: 72 h
Method in brief: as §1

SMILES | normalised viability
CCN(CCCOc1ccc2c(Nc3cc(CC(=O)Nc4cccc(F)c4)[nH]n3)ncnc2c1)CCOP(=O)(O)O [Barasertib] | 103%
CO[C@H]1/C=C\C=C(/C)C(=O)NC2=CC(=O)C(NCCN(C)C)=C(C[C@@H](C)C[C@H](OC)[C@H](O)[C@@H](C)/C=C(\C)[C@@H]1OC(N)=O)C2=O [Alvespimycin] | 97.4%
NC(=O)Nc1cc(-c2cccc(F)c2)sc1C(=O)N[C@H]1CCCNC1 [AZD 7762] | 101%

same assay, conditions: 100 nM; incubation time: 72 h

SMILES | normalised viability
CCN(CCCOc1ccc2c(Nc3cc(CC(=O)Nc4cccc(F)c4)[nH]n3)ncnc2c1)CCOP(=O)(O)O [Barasertib] | 95.7%
CO[C@H]1/C=C\C=C(/C)C(=O)NC2=CC(=O)C(NCCN(C)C)=C(C[C@@H](C)C[C@H](OC)[C@H](O)[C@@H](C)/C=C(\C)[C@@H]1OC(N)=O)C2=O [Alvespimycin] | 27.3%
NC(=O)Nc1cc(-c2cccc(F)c2)sc1C(=O)N[C@H]1CCCNC1 [AZD 7762] | 104%

same assay, conditions: 1000 nM; incubation time: 72 h

SMILES | normalised viability
CCN(CCCOc1ccc2c(Nc3cc(CC(=O)Nc4cccc(F)c4)[nH]n3)ncnc2c1)CCOP(=O)(O)O [Barasertib] | 85.8%
CO[C@H]1/C=C\C=C(/C)C(=O)NC2=CC(=O)C(NCCN(C)C)=C(C[C@@H](C)C[C@H](OC)[C@H](O)[C@@H](C)/C=C(\C)[C@@H]1OC(N)=O)C2=O [Alvespimycin] | 23.4%
NC(=O)Nc1cc(-c2cccc(F)c2)sc1C(=O)N[C@H]1CCCNC1 [AZD 7762] | 51.7%

system: HCC1937; experiment: as above; details: 1 nM; incubation time: 72 h
Method in brief: as §1

SMILES | normalised viability
CCN(CCCOc1ccc2c(Nc3cc(CC(=O)Nc4cccc(F)c4)[nH]n3)ncnc2c1)CCOP(=O)(O)O [Barasertib] | 69%
CO[C@H]1/C=C\C=C(/C)C(=O)NC2=CC(=O)C(NCCN(C)C)=C(C[C@@H](C)C[C@H](OC)[C@H](O)[C@@H](C)/C=C(\C)[C@@H]1OC(N)=O)C2=O [Alvespimycin] | 110%
NC(=O)Nc1cc(-c2cccc(F)c2)sc1C(=O)N[C@H]1CCCNC1 [AZD 7762] | 104%

same assay, conditions: 100 nM; incubation time: 72 h

SMILES | normalised viability
CCN(CCCOc1ccc2c(Nc3cc(CC(=O)Nc4cccc(F)c4)[nH]n3)ncnc2c1)CCOP(=O)(O)O [Barasertib] | 44.3%
